# According to ChEMBL document CHEMBL1140536, “Versatile templates for the development of novel kinase inhibitors: Discovery of novel CDK inhibitors” (Bioorg Med Chem Lett, 2007):
# pIC50: −log10 of the molar value.
# Assays:
# [1] = Inhibition of recombinant cyclin A/CDK2 expressed in Sf9 cells; parameters: species or system Homo sapiens
# A2780 = experiment: Growth inhibition of A2780 cells after 24 hrs by thymidine incorporation assay; format: functional, cell-based; details: Homo sapiens, A2780, 24 h
SMILES,pIC50 [1],pIC50 (A2780)
c1ccc(-c2cc(NCc3ccncc3)n3nccc3n2)cc1,6.30,
Fc1ccccc1-c1cn2ccnc2c(NCc2ccncc2)n1,6.10,
Brc1cnc2c(NCc3ccncc3)cc(-c3ccccc3)cn12,6.15,
Brc1cnn2c(NCc3ccncc3)cc(-c3ccccc3)cc12,5.35,
Brc1cnc2c(NCc3ccncc3)nc(-c3ccccc3)cn12,6.36,5.70
Clc1cccc(-c2cc(NCc3ccncc3)n3nccc3n2)c1Cl,6.30,
